Experiment [1] concerns human dorsal root ganglion neurons. Briefly: Calcium flux (ΔF/F) in human dorsal root ganglion neurons ex vivo, TRPV1/TRPA1 activation. In kind it is cell-based. As to conditions: calcium-sensitive dye, FIG. 1. The procedure:
Selective TRPV1 and TRPA1 activation responses were measured for exemplary compositions of the invention in human dorsal root ganglion neurons ex vivo and compared with TRPV1/TRPA1 co-activation responses. The degree of neuron activation was assessed by inward calcium flux using neurons preloaded with a calcium-sensitive fluorescent dye. Intracellular cellular calcium levels were then monitored by wide-field fluorescent microscopy. The change in intracellular fluorescence relative to baseline fluorescence (ΔF/F) was quantified, and the results are shown in FIG. 1.

Experiment [2] concerns flexor hallucis brevis muscle. As to the kind of experiment: Externally-induced cramping of the flexor hallucis brevis muscle, 6-shogaol orally disintegrating tablet (Example 4). In kind it is in vivo, human. As to conditions: ODT. On the procedure:
The goal of this study was to assess the effectiveness of 6-shogaol formulated as an orally disintegrating tablet (ODT) in the prevention of externally-induced cramping of the flexor hallucis brevis muscle of the foot. The study was carried in two parts. The first part was an open label, placebo-controlled, 5-visit study evaluating vehicle (lactose and sucrose), 0.5 mg, 2.5 mg, 10/6.9 mg, and 40/33 mg 6-shogaol. The second part was a randomized, single-blind, placebo-controlled, 4-visit study evaluating vehicle (lactose and sucrose), 0.5 mg, 20/18.5 mg, and 60/55.5 mg 6-shogaol. Screening of subjects occurred within 28 days in a similar manner as described above in Example 1. Note that dosage values separated by a “/” indicate the nominal versus the actual doses as determined by Chromadex.
The collected EMG data was analyzed for the baseline adjusted integrated EMG (IEMG) level, also referred to as area under the curve (AUC), and cramp duration, as described in Example 1. FIG. 11 and FIG. 12 summarize the average change and ratio in AUC values for all subjects compared by administered treatment both parts of the study. […] The data in FIG. 15 and FIG. 16 further support these findings.

The test system of experiment [3] is flexor hallucis brevis muscle. Briefly: Electrically induced flexor hallucis brevis cramp, surface EMG AUC over 140 seconds, additional beverage study (Example 3). The format is in vivo, human. As to conditions: 29 mg, 140 second observation period; FIG. 10. On the procedure:
An additional study was carried out comparing exemplary compounds and combinations thereof as summarized in Table 3 below, each administered as a beverage formulation.
Cramp intensity was assessed by integrating the area under the curve (AUC) of a surface EMG signal over a 140 second observation period post electrical induction of a cramp in the flexor hallucis brevis muscle as previously described. […] The overall change between the pre-treatment baseline and mean vehicle control response was minimal.

Turning to `CCCCCC(O)CC(=O)CCc1ccc(O)c(OC)c1` (stereo not shown) [Treatment 6-gingerol, 6-gingerol], the “neuron activation response, change in intracellular fluorescence relative to baseline (ΔF/F)” value in experiment [1] is “synergistic response”.
For `CCCCC/C=C/C(=O)CCc1ccc(O)c(OC)c1` [Treatment 6-shogaol, 6-shogaol], the cramp inhibition entry in experiment [2] (0.5 mg dosage level) was “no efficacy”; in experiment [2] (2.6 mg dosage level), “no efficacy”; in experiment [2] (6.9 mg) it was “roughly 40%”; in experiment [2] (33 mg dosage level), 75%; in experiment [2] (55 mg dosage level), 75%. Moreover, the “time over which cramp inhibition was sustained” value in experiment [2] (33 mg and 55 mg dosage levels) is ≥ 8 h. Moreover, the “decrease in cramp intensity compared to other treatments tested” value in experiment [3] is listed as “greater decrease”. Further, the “reduction in AUC compared to its study specific vehicle control” value in experiment [3] is reported as 5 fold. In addition, in experiment [1], the “neuron activation response, change in intracellular fluorescence relative to baseline (ΔF/F)” value is on record as “synergistic response”.

The record behind these values is patent publication US20180116976A1, “METHODS AND COMPOSITIONS FOR UNWANTED OR ABNORMAL MUSCLE CONTRACTIONS” (Flex Pharma, Inc., priority 2015, published 2018).
